In test [1] the test system is PC-3 human prostate cancer xenografts. In words: PC-3 xenografts in nude mice, Experiment 3: tumor growth. Format: in vivo. As to the method:
Male nude mice were implanted s.c. with 3 mm^3 pieces of PC-3 human hormone-independent prostate cancer tissue on both flanks. When tumors reached a volume of approximately 65 mm^3, the mice were divided into 7 experimental groups with 8 to 9 animals in each group and received single daily injections for 28 days as follows: 1. Control (vehicle solution); 2. JV-1-38 (10 μg/day s.c.); 3. Peptide 35 (10 μg/day s.c.); 4. Peptide 36 (10 μg/day s.c.); 5. Peptide 37 (10 μd/day s.c.); 6. Peptide 39 (10 μg/day s.c.); 7. Peptide 41 (10 μg/day s.c.). Tumor volumes were measured twice a week. The experiment was ended on day 28 by sacrificing the mice under Isofurane anesthesia. Resulting tumors were cleaned, weighed, and snapfrozen until further analyses. Trunk blood was collected from the abdominal aorta and serum was separated for RIA measurement of IGF-I. Statistical analyses of the measurement results were done by ANOVA followed by Fisher test; data are presented as the means±S.E.

Test [2] concerns GH-RH receptor isoforms on membrane fractions of human PC-3 prostate tumors. It counts as binding. The conditions noted are these: general statement. The method in brief:
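Competitive displacement of [^125I]JV-1-42 from crude membranes of human PC-3 prostate tumours grown as nude-mouse xenografts, with unlabelled peptides at 10^−12 to 10^−6 M. Bound radioactivity in the centrifuged pellet gamma-counted; Ki from Munson–Rodbard analysis. Relative affinity = Ki of reference peptide (JV-1-36 or JV-1-38) / Ki of test antagonist.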

The subject of test [3] is hGH-RH(1-29)NH2 induced GH release. The experiment in a line: Inhibition of GH release in superfused rat pituitary system. Format: cell-based. The method in brief:
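Dispersed rat pituitary cells in superfusion were preincubated 9 min with analog at various concentrations, then stimulated with 1 nM hGH-RH(1-29)NH2 for 3 min, repeated at 30, 60, 90, 120 min to gauge duration. GH measured by double-antibody RIA; net integrated responses expressed as percent of the initial 1 nM GH-RH response.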

Setting [4] is: 10 μg/day s.c., 28 days, vs control.

Marks after values point to notes of the source that are not given here. Square brackets hold non-standard residues; d marks the D form. Peptide text beside a SMILES is read from it. * marks the point of attachment. Phe(4-Cl) = N[C@@H](Cc1ccc(Cl)cc1)C(=O)O; hArg = N=C(N)NCCCC[C@H](N)C(=O)O; Nle = CCCC[C@H](N)C(=O)O; Abu = CC[C@H](N)C(=O)O; PhAc = O=C(Cc1ccccc1)*

Regarding `CCCC[C@H](NC(=O)[C@@H](NC(=O)[C@H](CC(=O)O)NC(=O)[C@H](CCC(N)=O)NC(=O)[C@H](CC(C)C)NC(=O)[C@H](CC(C)C)NC(=O)[C@H](CCCCN)NC(=O)[C@H](CCCNC(=N)N)NC(=O)[C@H](C)NC(=O)[C@H](CO)NC(=O)[C@H](CC(C)C)NC(=O)[C@H](CCC(N)=O)NC(=O)[C@H](CC)NC(=O)[C@H](CC(C)C)NC(=O)[C@@H](NC(=O)[C@H](CCCCN)NC(=O)[C@H](CCCNC(=N)N)NC(=O)[C@H](Cc1ccc(OCC)cc1)NC(=O)[C@H](CCCCNC(=N)N)NC(=O)[C@H](CC(N)=O)NC(=O)[C@@H](NC(=O)[C@H](Cc1ccc(Cl)cc1)NC(=O)[C@@H](NC(=O)[C@H](C)NC(=O)[C@H](CC(=O)O)NC(=O)[C@@H](CCCNC(=N)N)NC(=O)[C@H](Cc1ccc(O)cc1)NC(=O)Cc1ccccc1)[C@@H](C)CC)[C@@H](C)O)C(C)C)[C@@H](C)CC)C(=O)N[C@H](CCCNC(=N)N)C(=O)N[C@@H](CCCCNC(=N)N)C(N)=O` [Peptide 41, [PhAc-Tyr^1, D-Arg^2, Phe(pCl)^6, Har^9, Tyr(Et)^10, Abu^15, Nle^27, D-Arg^28, Har^29]hGH-RH(1-29)NH2] (PhAc-Y[dR]DAI[Phe(4-Cl)]TN[hArg]Y(Et)RKVL[Abu]QLSARKLLQDI[Nle][dR][hArg]-NH2), in test [1] (10 μg/day s.c., 28 days), the “Tumor volume (mm^3) Final” value is 341 ± 107* mm^3, the “Tumor volume doubling time” value worked out at 28.2 ± 9.85 days and the “Tumor weight” value is recorded as 579 ± 188 mg. Further, in test [1] (setting [4]), the “Tumor volume Final (% inhibition)” value is listed as “(54%)” and the “Tumor weight (% inhibition)” value is “(17%)”. Besides, the “Tumor volume (mm^3) Initial” value in test [1] (at start of treatment) came out at 66.7 ± 12.5 mm^3. Moreover, the “binding affinities to the tumoral receptors for GH-RH (in words)” value in test [2] is on record as “extremely high binding affinities”. Besides, the “GH response (% of control) 0 min” value in test [3] (antagonist 30 nM, 1 nM hGH-RH(1-29)NH2 at 0 min) is recorded as 47 % of control. Further, the “GH response (% of control) 30 min” value in test [3] (antagonist 30 nM, 1 nM hGH-RH(1-29)NH2 at 30 min) is listed as 16 % of control. Also, the “GH response (% of control) 60 min” value in test [3] (antagonist 30 nM, 1 nM hGH-RH(1-29)NH2 at 60 min) is 14 % of control. In addition, the “GH response (% of control) 90 min” value in test [3] (antagonist 30 nM, 1 nM hGH-RH(1-29)NH2 at 90 min) was 15 % of control. Also, in test [3] (antagonist 30 nM, 1 nM hGH-RH(1-29)NH2 at 120 min), the “GH response (% of control) 120 min” value is given as 16 % of control. Further, in test [3] (general statement, in vitro and in vivo), the “endocrine antagonistic potency: inhibition of the GH release stimulated by hGH-RH(1-29)NH2 (in words)” value is “high endocrine antagonistic potencies”.

The values are drawn from patent US7452865B2, “Antagonistic analogs of GH RH (2003)” (The Administrare's of the Tulane Educational Fund, priority 2004, dated 2008).
